This note sets out measurements from patent US20040209897A1 (Pharmacia Corporation, priority 2002, published 2004).

The structures appear in SMILES notation. Counter-ions that a name gives are not always drawn.

In the experiment the target is Recombinant MAPKAPK2 (MK-2) (Homo sapiens, UniProt P49137). The experiment is described as follows: Determination of MK-2 IC50 (HSP-peptide phosphorylation, anion exchange resin capture assay). Particulars: for IC50: MAPKAP2 Avg. IC50. Format: biochemical.
Recombinant MAPKAPK2 (MK-2), sequence (P49137 whole entry, species assumed): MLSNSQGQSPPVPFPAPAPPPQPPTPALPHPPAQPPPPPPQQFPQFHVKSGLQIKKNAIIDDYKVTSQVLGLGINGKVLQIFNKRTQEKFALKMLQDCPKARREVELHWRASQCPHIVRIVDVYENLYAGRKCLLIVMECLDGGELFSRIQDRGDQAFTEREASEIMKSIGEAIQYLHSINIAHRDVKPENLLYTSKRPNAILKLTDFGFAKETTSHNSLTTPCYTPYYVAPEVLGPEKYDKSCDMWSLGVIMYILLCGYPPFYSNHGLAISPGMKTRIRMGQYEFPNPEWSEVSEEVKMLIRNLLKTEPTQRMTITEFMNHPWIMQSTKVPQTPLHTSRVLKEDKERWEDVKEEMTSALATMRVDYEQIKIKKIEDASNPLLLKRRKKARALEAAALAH

Procedure: The phosphorylation of HSP-peptide ([sequence]) by MAPKAPK2 was measured using an anion exchange resin capture assay method. […] The reaction was terminated and [γ^33P]ATP was removed from solution by the addition of 150 μl of AG 1×8 ion exchange resin in 900 mM sodium formate pH 3.0. A 50 μl aliquot of head volume was removed from the quenched reaction mixture and added to a 96-well plate, 150 μl of Microscint-40 (Packard) was added and the amount of phosphorylated-peptide was determined.
Compounds are evaluated as potential inhibitors of the MK2 kinase by measuring their effects on MK2 phosphorylation of the peptide substrate. Compounds may be screened initially at two concentrations prior to determination of IC50 values. Screening results are expressed as percent inhibition at the concentrations of compound tested. For IC50 value determinations, compounds are tested at six concentrations in ten-fold serial dilutions with each concentration tested in triplicate. Results are expressed as IC50 values in micromolar. The assay is performed at a final concentration of 2% DMSO.

Consider `O=C1NCCc2[nH]c(-c3cc(-c4cnc5ccccc5c4)ncc3F)cc21` [Example 4, trifluoroacetate], for which the IC50 – broadly, the point on the concentration scale where inhibition reaches its midpoint – was found to be 7 nM.

For `O=C1NCCc2[nH]c(-c3ccnc(-c4ccc5cc(O)ccc5c4)c3)cc21` [Example 17], the IC50 was found to be 9.2 nM.

For `O=C(O)c1ccc(-c2cc(-c3cc4c([nH]3)CCNC4=O)c(F)cn2)cc1` [Example 28], the IC50 was 10.1 nM.

As for `O=C1NCCc2[nH]c(-c3ccnc(/C=C/c4c(F)cccc4F)c3)cc21` [Example 59, trifluoroacetate], the IC50 was 16 nM.

For `O=C1NCCc2[nH]c(-c3ccnc(-c4ccc5c(c4)OC=CO5)c3)cc21` [Example 62, trifluoroacetate], the IC50 amounted to 16.4 nM.

For `O=C1NCCc2[nH]c(-c3ccnc(-c4ccc(N5CCOCC5)nc4)c3)cc21` [Example 63, trifluoroacetate], the IC50 turned out to be 16.4 nM.

`O=C1NCCc2[nH]c(-c3ccnc(/C=C/c4cccnc4)c3)cc21` [Example 78, trifluoroacetate]: the IC50 is 18.3 nM.

Turning to `O=C1NCCc2[nH]c(-c3ccnc(-c4cc(F)cc(F)c4)c3)cc21` [Example 80, trifluoroacetate], the IC50 was 18.5 nM.

Take `C=CC(=O)Nc1cccc(-c2cc(-c3cc4c([nH]3)CCNC4=O)ccn2)c1` [Example 82, trifluoroacetate]: the IC50 stood at 19.1 nM.

`CC(C)C(=O)Nc1ccc(-c2cc(-c3cc4c([nH]3)CCNC4=O)ccn2)cc1` [Example 88, trifluoroacetate]: the IC50 came out at 19.5 nM.

Regarding `Nc1ccc(-c2cc(-c3cc4c([nH]3)CCNC4=O)ccn2)cn1` [Example 90, trifluoroacetate], the IC50 was 19.9 nM.

Turning to `COC(=O)c1ccc(-c2cc(-c3cc4c([nH]3)CCNC4=O)ccn2)cc1` [Example 105, trifluoroacetate], the IC50 came out at 22 nM.

In the case of `Cc1cncc(-c2cc(-c3cc4c([nH]3)CCNC4=O)ccn2)c1` [Example 111, trifluoroacetate], the IC50 stood at 22.5 nM.

With `CC(C)c1cccc(-c2cc(-c3cc4c([nH]3)CCNC4=O)ccn2)c1` [Example 119, trifluoroacetate], the IC50 is 23.7 nM.

With `O=C(NCC(F)(F)F)c1ccc(-c2cc(-c3cc4c([nH]3)CCNC4=O)ccn2)cc1` [Example 121, trifluoroacetate], the IC50 is 23.9 nM.

For the compound `CC(=NO)c1cccc(-c2cc(-c3cc4c([nH]3)CCNC4=O)ccn2)c1` [Example 134, bis(trifluoroacetate)], the IC50 was 25.7 nM.

With `Cc1ccc(-c2cc(-c3cc4c([nH]3)CCNC4=O)ccn2)cc1F` [Example 150, trifluoroacetate], the IC50 came out at 27.6 nM.

In the case of `O=C1NCCc2[nH]c(-c3ccnc(/C=C/c4ccc(N5CCOCC5)c(F)c4)c3)cc21` [Example 156, trifluoroacetate], the IC50 stood at 28.1 nM.

As to `CC(=O)c1cccc(-c2cc(-c3cc4c([nH]3)CCNC4=O)c(F)cn2)c1` [Example 159, trifluoroacetate], the half-maximal inhibitory concentration (IC50) amounted to 28.3 nM.

Take `N#Cc1cccc(-c2cc(-c3cc4c([nH]3)CCNC4=O)ccn2)c1` [Example 160, trifluoroacetate]: the IC50 was found to be 28.5 nM.

In the case of `O=C1NCCc2cc(-c3cc(-c4cc5c([nH]4)CCNC5=O)ccn3)ccc21` [Example 161, trifluoroacetate], the IC50 turned out to be 28.6 nM.

With `O=C1NCCc2[nH]c(-c3ccnc(-c4ccc(C(=O)C5CC5)cc4)c3)cc21` [Example 167, trifluoroacetate], the half-maximal inhibitory concentration (IC50) worked out at 29.5 nM.

`COc1ccc(/C=C/c2cc(-c3cc4c([nH]3)CCNC4=O)ccn2)cc1` [Example 170, trifluoroacetate]: the IC50 came to 29.6 nM.

With `COc1cc(/C=C/c2cc(-c3cc4c([nH]3)CCNC4=O)ccn2)cc(OC)c1` [Example 171, trifluoroacetate], the IC50 stood at 29.6 nM.

Consider `O=C1NCCc2[nH]c(-c3ccnc(/C=C/c4cccc(CCN5CCOCC5)c4)c3)cc21` [Example 192, trifluoroacetate], for which the IC50 was 32.4 nM.

Consider `O=C1NCCc2[nH]c(-c3ccnc(/C=C/c4cc(F)ccc4F)c3)cc21` [Example 196, trifluoroacetate], for which the IC50 came to 33.6 nM.

As to `COC(=O)Nc1ccc(-c2cc(-c3cc4c([nH]3)CCNC4=O)ccn2)cc1` [Example 203, trifluoroacetate], the IC50 amounted to 35.1 nM.

Turning to `O=Cc1cccc(-c2cc(-c3cc4c([nH]3)CCNC4=O)ccn2)c1` [Example 204, trifluoroacetate], the IC50 worked out at 35.5 nM.

For `N#Cc1ccccc1/C=C/c1cc(-c2cc3c([nH]2)CCNC3=O)ccn1` [Example 225, trifluoroacetate], the IC50 came out at 38.9 nM.

Regarding `CC(C)Cc1cncc(-c2cc(-c3cc4c([nH]3)CCNC4=O)ccn2)c1` [Example 243, trifluoroacetate], the IC50 worked out at 41.8 nM.

For the compound `O=C(CBr)Nc1cccc(-c2cc(-c3cc4c([nH]3)CCNC4=O)ccn2)c1` [Example 271, trifluoroacetate], the “kind of MK-2 inhibition (irreversible)” value is given as “irreversible inhibitors”.

In the case of `CCc1cccc(-c2cc(-c3cc4c([nH]3)CCNC4=O)ccn2)c1` [Example 272, trifluoroacetate], the IC50 was 49.3 nM.

As for `COc1ccc2cc(-c3cc(-c4cc5c([nH]4)CCNC5=O)ccn3)ccc2c1` [Example 273, trifluoroacetate], the IC50 came to 49.7 nM.

As to `O=C1NCCc2[nH]c(-c3ccnc(/C=C/c4c[nH]c5ccccc45)c3)cc21` [Example 276, trifluoroacetate], the IC50 was 50.1 nM.

Turning to `CC(=O)OCC(=O)Nc1cccc(-c2cc(-c3cc4c([nH]3)CCNC4=O)ccn2)c1` [Example 279, trifluoroacetate], the IC50 was found to be 51.1 nM.

Regarding `CC(=O)c1ccc(-c2cc(-c3cc4c([nH]3)CCNC4=O)ccn2)cc1` [Example 280, trifluoroacetate], the IC50 was 51.2 nM.

`C=C(C)C(=O)Nc1cccc(-c2cc(-c3cc4c([nH]3)CCNC4=O)ccn2)c1` [Example 287, trifluoroacetate]: the IC50 amounted to 52.5 nM.

As to `CC1Cc2[nH]c(-c3ccnc(-c4ccc(N(C)C)nc4)c3)cc2C(=O)N1` (stereo not shown) [Example 295, trifluoroacetate], the IC50 was 53.4 nM.

Turning to `CN(C)C(=O)CCCOc1ccc(-c2cc(-c3cc4c([nH]3)CCNC4=O)ccn2)cc1` [Example 326, trifluoroacetate], the IC50 stood at 62.2 nM.

For `N#Cc1ccc(-c2cc(-c3cc4c([nH]3)CCNC4=O)ccn2)cc1` [Example 327, trifluoroacetate], the IC50 is 62.3 nM.

With `O=C(O)c1cccc(-c2cccc(-c3cc(-c4cc5c([nH]4)CCNC5=O)ccn3)c2)c1` [Example 333, trifluoroacetate], the IC50 is 64.2 nM.

Regarding `O=C(/C=C/c1ccccc1)Nc1cc(-c2cc3c([nH]2)CCNC3=O)ccn1` [Example 334, trifluoroacetate], the IC50 is 64.3 nM.

Consider `O=C(CCCl)Nc1cccc(-c2cc(-c3cc4c([nH]3)CCNC4=O)ccn2)c1` [Example 336, trifluoroacetate], for which the IC50 came to 64.5 nM.

For `CN(C)C/C=C/C(=O)Nc1cccc(-c2cc(-c3cc4c([nH]3)CCNC4=O)ccn2)c1` [Example 338, trifluoroacetate], the IC50 was found to be 64.8 nM.

`O=C(CCl)NCc1cccc(-c2cc(-c3cc4c([nH]3)CCNC4=O)ccn2)c1` [Example 344, trifluoroacetate]: the IC50 is 65.9 nM.

`O=C1NCCc2[nH]c(-c3ccnc(-c4ccc(CCc5ccc(F)cc5)nc4)c3)cc21` [Example 345, trifluoroacetate]: the IC50 turned out to be 66.1 nM.

In the case of `CC(=NO)c1ccc(-c2cc(-c3cc4c([nH]3)CCNC4=O)ccn2)cc1` [Example 349, trifluoroacetate], the IC50 was 66.7 nM.

Turning to `C=CC(=O)NCc1cccc(-c2cc(-c3cc4c([nH]3)CCNC4=O)ccn2)c1` [Example 351, hydrochloride], the IC50 was 69.2 nM.

On to `O=C(CCCOc1ccc(-c2cc(-c3cc4c([nH]3)CCNC4=O)ccn2)cc1)NCCN1CCOCC1` [Example 357, trifluoroacetate], for which the IC50 came to 72.2 nM.

Take `COC(=O)N1CC(c2cc(-c3cc4c([nH]3)CCNC4=O)ccn2)=Cc2ccccc21` [Example 362, trifluoroacetate]: the IC50 is 73.8 nM.

For the compound `O=C(O)/C=C\C(=O)NCc1cccc(-c2cc(-c3cc4c([nH]3)CCNC4=O)ccn2)c1` [Example 369, trifluoroacetate], the IC50 is 76 nM.

As for `O=C(NC1CCCCC1)c1ccc(-c2cc(-c3cc4c([nH]3)CCNC4=O)ccn2)c(F)c1` [Example 391, trifluoroacetate], the IC50 was found to be 83.1 nM.

As to `O=C(CCl)Nc1cccc(-c2cc(-c3cc4c([nH]3)CCNC4=O)ccn2)c1` [Example 401, trifluoroacetate], the concentration for half-maximal inhibition (IC50) was 87.5 nM.

With `O=C(/C=C/c1ccccc1)Nc1ccc(-c2cc(-c3cc4c([nH]3)CCNC4=O)ccn2)cc1` [Example 403, trifluoroacetate], the IC50 worked out at 87.7 nM.

In the case of `O=C1NCCc2[nH]c(-c3ccnc(-c4cccc(CNCc5cccc(Cl)c5)c4)c3)cc21` [Example 408, bis(trifluoroacetate)], the IC50 is 89.9 nM.

`CON=C(C)c1ccc(-c2cc(-c3cc4c([nH]3)CCNC4=O)ccn2)cc1` [Example 415]: the IC50 was found to be 92.3 nM.

As to `C/C=C/C(=O)Nc1cccc(-c2cc(-c3cc4c([nH]3)CCNC4=O)ccn2)c1` [Example 430, trifluoroacetate], the IC50 is 99.3 nM.

As to `Nc1cccc(-c2cc(-c3cc4c([nH]3)CCNC4=O)ccn2)c1` [Example 431, trifluoroacetate], the IC50 is 99.3 nM.

In the case of `CCc1ccc(-c2cc(-c3cc4c([nH]3)CCNC4=O)ccn2)cc1` [Example 434, trifluoroacetate], the IC50 was 101 nM.

Regarding `CN(C)C/C=C/C(=O)NCc1cccc(-c2cc(-c3cc4c([nH]3)CCNC4=O)ccn2)c1` [Example 465], the 50% inhibitory concentration (IC50) amounted to 118 nM.

`CN(C)S(=O)(=O)c1ccc(-c2cc(-c3cc4c([nH]3)CCNC4=O)ccn2)cc1` [Example 470]: the half-inhibitory concentration (IC50) came to 120 nM.

Take `NCCCc1ccc(-c2cc(-c3cc4c([nH]3)CCNC4=O)ccn2)cn1` [Example 485]: the IC50 was 132 nM.

For the compound `CC(C)=NNc1cc(-c2cc3c([nH]2)CCNC3=O)ccn1` [Example 491], the IC50 stood at 133 nM.

On to `O=C1NCCc2[nH]c(-c3ccnc(/C=C/c4cc5ccccc5o4)c3)cc21` [Example 494], for which the IC50 stood at 134 nM.
